Test results taken from patent publication US9102591B2, “Benzamides” (H. Lundbeck A/S, priority 2012, dated 2015).

These compounds were tested against P2X7 receptor (Homo sapiens (Human), UniProt Q99572) (assay: P2X7 FLIPR assay (BzATP-stimulated calcium fluorescence, antagonist IC50)).
Format: cell-based
Procedure: This example illustrates representative assays for use in evaluating the test compounds for antagonist activity. Compounds of the present invention were tested in vitro for their ability to act as antagonists to the P2X7receptor. […]
Cells were plated to cell density of approximately 15,000 cells/well in 384-well assay plates (50 μl/well) with 1.5% low serum media (DMEM, 1.5% FBS, 1% L-glut (2 mM), 10 mM HUES, 1% P/S). Cells were plated 24 hours prior to assay. Cells expressing human, rat or mouse P2X7 receptor were assayed in the following manner.
Fluo-4 NW dye mix (Molecular Probes, Inc., Eugene, Oreg., USA) was prepared in buffer (see manufacturer's instructions). Cell plates were removed from the 37° C. incubator, the media discarded and then 30 μL of dye was added to each well. Plates were placed in the 37° C., non-CO2 incubator for 30 minutes and then room temperature for 30 minutes.
Compound mixtures (A) were added to assay plates containing cells and placed at room temperature for 30 minutes, then BzATP (B) was added. Fluorescence was read using the Tetra FLIPR® (Molecular Devices, Inc., Sunnyvale, Calif., USA) and IC50 values were calculated by standard methods to determine antagonist activity.

P2X7 receptor, sequence (Q99572 whole entry): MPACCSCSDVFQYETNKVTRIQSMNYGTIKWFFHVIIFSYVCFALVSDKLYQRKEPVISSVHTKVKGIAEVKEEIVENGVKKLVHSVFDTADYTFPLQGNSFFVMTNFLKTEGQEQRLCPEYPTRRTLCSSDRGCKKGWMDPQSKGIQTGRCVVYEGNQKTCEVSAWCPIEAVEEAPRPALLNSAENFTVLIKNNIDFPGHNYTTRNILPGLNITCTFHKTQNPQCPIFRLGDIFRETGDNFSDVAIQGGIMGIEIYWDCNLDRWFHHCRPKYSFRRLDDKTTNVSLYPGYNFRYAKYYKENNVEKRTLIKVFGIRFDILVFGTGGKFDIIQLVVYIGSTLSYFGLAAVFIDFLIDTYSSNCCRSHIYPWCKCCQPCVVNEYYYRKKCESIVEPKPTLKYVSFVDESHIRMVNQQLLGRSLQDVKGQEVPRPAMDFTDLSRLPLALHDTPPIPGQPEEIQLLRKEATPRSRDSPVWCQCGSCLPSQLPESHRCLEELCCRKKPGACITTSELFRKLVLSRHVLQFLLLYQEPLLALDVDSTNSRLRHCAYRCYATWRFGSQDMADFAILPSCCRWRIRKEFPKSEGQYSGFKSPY

IC50 [nM] | Compound
0.86 | O=C(NCC(CC1CC1)c1cnc(C(F)(F)F)nc1)c1cccc(Cl)c1Cl (single isomer, unassigned; (-)) [(−)2,3-dichloro-N-[3-cyclopropyl-2-[2-(trifluoromethyl)pyrim] [(−)2,3-dichloro-N-[3-cyclopropyl-2-[2-(trifluoromethyl)pyrimidin-5-yl]propyl]benzamide]
1300 | Cc1ncc(C(CNC(=O)c2ccccc2Cl)c2ccncc2)cn1 (stereo not shown) [2-chloro-N-[2-(2-methylpyrimidin-5-yl)-2-(4-pyridyl)ethyl]benzamide]
68 | O=C(NCC(c1cnc(C(F)(F)F)nc1)C1CCOCC1)c1c(F)cccc1Cl (single isomer, unassigned; (-)) [(−)2-chloro-6-fluoro-N-[2-tetrahydropyran-4-yl-2-[2-(trifluo] [(−)2-chloro-6-fluoro-N-[2-tetrahydropyran-4-yl-2-[2-(trifluoromethyl)pyrimidin-5-yl]ethyl]benzamide]
11 | O=C(NCC1(c2ccc(F)nc2)CCC(F)(F)CC1)c1cccc(Cl)c1F [3-chloro-N-((4,4-difluoro-1-(6-fluoropyridin-3-yl)cyclohexyl)methyl)-2-fluorobenzamide]
12 | COc1cccc(C(=O)NCC(CC2CC2)c2ccc(C(F)(F)F)nc2)c1Cl (single isomer, unassigned; (+)) [(+)2-chloro-N-[3-cyclopropyl-2-[6-(trifluoromethyl)-3-pyridy] [(+)2-chloro-N-[3-cyclopropyl-2-[6-(trifluoromethyl)-3-pyridyl]propyl]-3-methoxy-benzamide]
83 | Cc1ncc(C(CNC(=O)c2cccc(F)c2Cl)C2CCC(F)(F)CC2)cn1 (stereo not shown) [2-chloro-N-[2-(4,4-difluorocyclohexyl)-2-(2-methylpyrimidin-5-yl)ethyl]-3-fluoro-benzamide]
570 | Cc1ncc(C(CNC(=O)c2ccccc2Cl)C2CCOCC2)cn1 (single isomer, unassigned; (-)) [(−)2-chloro-N-[2-(2-methylpyrimidin-5-yl)-2-tetrahydropyran-] [(−)2-chloro-N-[2-(2-methylpyrimidin-5-yl)-2-tetrahydropyran-4-yl-ethyl]benzamide]
11 | O=C(NCC(c1cnc(C(F)(F)F)nc1)C1CCOCC1)c1cccc(Cl)c1Cl (single isomer, unassigned; (-)) [(−)2,3-dichloro-N-[2-tetrahydropyran-4-yl-2-[2-(trifluoromethyl)pyrimidin-5-yl]ethyl]benzamide]
0.89 | O=C(NCC(CC1CC1)c1ccc(C(F)(F)F)nc1)c1c(Cl)cccc1Cl (single isomer, unassigned; (+)) [(+)2,6-dichloro-N-[3-cyclopropyl-2-[6-(trifluoromethyl)-3-py] [(+)2,6-dichloro-N-[3-cyclopropyl-2-[6-(trifluoromethyl)-3-pyridyl]propyl]benzamide]
1.2 | O=C(NCC1(c2cncc(F)c2)CCC(F)(F)CC1)c1cccc(Cl)c1Cl [2,3-dichloro-N-((4,4-difluoro-1-(5-fluoropyridin-3-yl)cyclohexyl)methyl)benzamide]
58 | Cc1ncc(C(CNC(=O)c2cccc(Cl)c2Cl)C2CCOCC2)cn1 (single isomer, unassigned; (-)) [(−)2,3-dichloro-N-[2-(2-methylpyrimidin-5-yl)-2-tetrahydropy] [(−)2,3-dichloro-N-[2-(2-methylpyrimidin-5-yl)-2-tetrahydropyran-4-yl-ethyl]benzamide]
0.09 | O=C(NCC(CC1(C(F)(F)F)CC1)c1ccc(C(F)(F)F)nc1)c1ccccc1Cl (single isomer, unassigned; (+)) [(+)2-chloro-N-[3-[1-(trifluoromethyl)cyclopropyl]-2-[6-(trif] [(+)2-chloro-N-[3-[1-(trifluoromethyl)cyclopropyl]-2-[6-(trifluoromethyl)-3-pyridyl]propyl]benzamide]
3.4 | COc1cccc(C(=O)NCC(CC2CC2)c2cnc(C(F)(F)F)nc2)c1Cl (single isomer, unassigned; (-)) [(−)2-chloro-N-[3-cyclopropyl-2-[2-(trifluoromethyl)pyrimidin] [(−)2-chloro-N-[3-cyclopropyl-2-[2-(trifluoromethyl)pyrimidin-5-yl]propyl]-3-methoxy-benzamide]
190 | COc1ccc(C2(CNC(=O)c3cc(C)ccc3Cl)CCCC2)cc1 [2-Chloro-N-[1-(4-methoxy-phenyl)-cyclopentylmethyl]-5-methyl-benzamide]
360 | O=C(NCC1(c2ccc(Cl)cc2)CCOCC1)c1c(Cl)cccc1Cl [2,6-Dichloro-N-[4-(4-chloro-phenyl)-tetrahydro-pyran-4-ylmethyl]-benzamide]
5.5 | O=C(NCC(CC1CC1)c1cncc(Cl)c1)c1cccc(Cl)c1Cl (stereo not shown) [2,3-dichloro-N-(2-(5-chloropyridin-3-yl)-3-cyclopropylpropyl)benzamide]
4.8 | O=C(NCC(c1ccc(F)cc1)c1cnc(C(F)(F)F)nc1)c1cccc(F)c1Cl (single isomer, unassigned; (+)) [(+)2-chloro-3-fluoro-N-[2-(4-fluorophenyl)-2-[2-(trifluorome] [(+)2-chloro-3-fluoro-N-[2-(4-fluorophenyl)-2-[2-(trifluoromethyl)pyrimidin-5-yl]ethyl]benzamide]
0.71 | Cc1c(Br)cccc1C(=O)NCC1(c2ccc(C(F)(F)F)nc2)CCC(F)(F)CC1 [3-bromo-N-((4,4-difluoro-1-(6-(trifluoromethyl)pyridin-3-yl)cyclohexyl)methyl)-2-methylbenzamide]
120 | Cc1ncc(C2(CNC(=O)c3ccccc3Cl)CCC(F)(F)CC2)cn1 [2-chloro-N-[[4,4-difluoro-1-(2-methylpyrimidin-5-yl)cyclohexyl]methyl]benzamide]
150 | Cc1ncc(C(CNC(=O)c2c(F)cccc2Cl)C2CCC(F)(F)CC2)cn1 (stereo not shown) [2-chloro-N-[2-(4,4-difluorocyclohexyl)-2-(2-methylpyrimidin-5-yl)ethyl]-6-fluoro-benzamide]
5.1 | O=C(NCC(CC1CC1)c1cnc(C(F)(F)F)nc1)c1c(Cl)cccc1Cl (stereo not shown) [2,6-dichloro-N-(3-cyclopropyl-2-(2-(trifluoromethyl)pyrimidi] [2,6-dichloro-N-(3-cyclopropyl-2-(2-(trifluoromethyl)pyrimidin-5-yl)propyl)benzamide]
1.3 | O=C(NCC1(c2ccc(C3CC3)nc2)CCC(F)(F)CC1)c1cccc(Cl)c1Cl [2,3-dichloro-N-((1-(6-cyclopropylpyridin-3-yl)-4,4-difluorocyclohexyl)methyl)benzamide]
4 | Cc1c(F)cccc1C(=O)NCC1(c2ccc(C(F)(F)F)nc2)CCC(F)(F)CC1 [N-((4,4-difluoro-1-(6-(trifluoromethyl)pyridin-3-yl)cyclohexyl)methyl)-3-fluoro-2-methylbenzamide]
1.6 | COc1cccc(C(=O)NCC2(c3ccc(C(F)(F)F)nc3)CCC(F)(F)CC2)c1C [N-((4,4-difluoro-1-(6-(trifluoromethyl)pyridin-3-yl)cyclohexyl)methyl)-3-methoxy-2-methylbenzamide]
0.31 | O=C(NCC(CC1CC1)c1ccc(C(F)(F)F)nc1)c1cccc(Cl)c1Cl (single isomer, unassigned; (-)) [(−)2,3-dichloro-N-[3-cyclopropyl-2-[6-(trifluoromethyl)-3-py] [(−)2,3-dichloro-N-[3-cyclopropyl-2-[6-(trifluoromethyl)-3-pyridyl]propyl]benzamide]
